Results published in US7842719B2 (priority 2002, dated 2010).
Converted amounts (≈) assume the structure as drawn.

Columns and labels:
[1] = tested on: BVDV-strain Pe515; type: cell-based, bovine viral diarrhea virus
[2] = tested on: MDBK cells
[3] = tested on: HIV-1 (IIIB); type: cell-based, human immunodeficiency virus
[4] = tested on: HIV-2 (ROD); type: cell-based, human immunodeficiency virus
[5] = tested on: HSV-1 (KOS); type: cell-based, herpes simplex virus
[6] = tested on: HSV-2 (G); type: cell-based, herpes simplex virus
[7] = tested on: VV; type: cell-based, vaccinia virus
[8] = tested on: CMV Davis; type: cell-based, human cytomegalovirus
[9] = tested on: CMV AD-169; type: cell-based, human cytomegalovirus
[10] = tested on: VZV OKA; type: cell-based, varicella zoster virus
[11] = tested on: VZV YS; type: cell-based, varicella zoster virus
[12] = tested on: L1210/0; type: cell-based, murine
[13] = tested on: FM3A/0; type: cell-based, murine
[14] = tested on: Molt4/C8; type: cell-based, human
[15] = tested on: CEM/0; type: cell-based, human
[16] = tested on: BVDV I cp; type: cell-based, Bovine viral diarrhea virus
[17] = tested on: BDV; type: cell-based, Border disease virus
[18] = tested on: Non infected cells

C[C@H]1[C@@H](O)O[C@@H]2O[C@@]3(C)CC[C@H]4[C@H](C)CC[C@@H]1[C@@]24OO3 [Dihydroartemisinin, dihydroartemisinin]
EC50 BVDV [1]: 0.05 µg/mL (≈ 0.176 µM) | activity against BVDV [1]: strong anti-viral activity | MTC MDBK (minimal toxic concentration) [2]: 0.4 µg/mL | cell toxicity [2]: stayed low

C[C@@H]1CC[C@H]2[C@@H](C)C(=O)O[C@@H]3O[C@@]4(C)CC[C@@H]1[C@]32OO4 [Artemisinin, artemisinin]
EC50 HIV-1 (IIIB) (CEM) [3]: >20 µg/mL | EC50 HIV-2 (ROD) (CEM) [4]: >20 µg/mL | EC50 HSV-1 (KOS) (E6SM) [5]: >400 µg/mL | EC50 HSV-2 (G) (E6SM) [6]: 240 µg/mL (≈ 850 µM) | antiviral activity against HSV-2 [6]: showed antiviral activity | EC50 VV (E6SM) [7]: 240 µg/mL (≈ 850 µM) | antiviral activity against VV [7]: showed antiviral activity | EC50 CMV Davis (HEL) [8]: >50 µg/mL | EC50 CMV AD-169 (HEL) [9]: >50 µg/mL | EC50 VZV (HEL) OKA [10]: >50 µg/mL | EC50 VZV (HEL) YS [11]: >50 µg/mL | EC50 BVDV [1]: 0.4 µg/mL (≈ 1.42 µM) | activity against BVDV [1]: strong anti-viral activity | activity against tumor cell line [12]: no interesting activity | activity against tumor cell line [13]: no interesting activity | activity against tumor cell line [14]: no interesting activity | activity against tumor cell line [15]: no interesting activity | cell toxicity [2]: stayed low

C[C@H]1[C@H](OC(=O)CCC(=O)O)O[C@@H]2O[C@@]3(C)CC[C@H]4[C@H](C)CC[C@@H]1[C@@]24OO3 [Artensunate, artesunate]
EC50 BVDV [1]: 0.07 µg/mL (≈ 0.182 µM) | activity against BVDV [1]: strong anti-viral activity | MTC MDBK (minimal toxic concentration) [2]: 0.4 µg/mL | cell toxicity [2]: stayed low

CO[C@H]1O[C@@H]2O[C@@]3(C)CC[C@H]4[C@H](C)CC[C@@H]([C@H]1C)[C@@]24OO3 [Artemether, artemether]
EC50 BVDV [1]: 0.3 µg/mL (≈ 1.01 µM) | activity against BVDV [1]: strong anti-viral activity | EC90 [16]: 0.16 µg/mL (≈ 0.536 µM) | EC90 [17]: 0.8 µg/mL (≈ 2.68 µM) | cell toxicity [2]: stayed low | toxic concentration [18]: around 100 μg/ml
